Data published in ChEMBL document CHEMBL5154896, “Discovery of a Novel Class of d-Amino Acid Oxidase Inhibitors Using the Schrödinger Computational Platform” (J Med Chem, 2022).
One block for each molecule: values may come before it. Calls of active or inactive are those of the source. No cut-off for these calls is given here.

Columns and labels:
[1] = Unbound drug concentration in C57Bl/6 mouse brain at 2 mg/kg, po or 0.5 mg/kg,iv by LC-MS-MS analysis; format: ADME, organism-based; details: C57Bl/6, mouse, brain
D-amino-acid oxidase [2] = target: D-amino-acid oxidase (Homo sapiens, UniProt P14920); assay: Inhibition of recombinant full length human DAO preincubated with compound for 20 mins measured after 4 hrs by Amplex red and horseradish peroxidase based fluorescence assay
Chain of D-amino-acid oxidase (Homo sapiens, UniProt P14920) (P14920 whole entry): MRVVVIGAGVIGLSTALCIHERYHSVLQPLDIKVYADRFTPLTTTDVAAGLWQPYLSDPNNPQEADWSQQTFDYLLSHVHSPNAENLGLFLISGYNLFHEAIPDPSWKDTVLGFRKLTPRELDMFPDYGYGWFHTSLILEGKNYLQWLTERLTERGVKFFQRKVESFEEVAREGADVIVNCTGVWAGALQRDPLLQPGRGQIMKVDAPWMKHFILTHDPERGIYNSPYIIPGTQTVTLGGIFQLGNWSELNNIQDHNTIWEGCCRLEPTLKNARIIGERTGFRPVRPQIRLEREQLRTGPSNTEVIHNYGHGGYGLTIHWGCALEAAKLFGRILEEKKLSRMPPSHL

[3] = Apparent permeability across apical to basolateral membrane in MDCK-MDR1 cells by LC-MS/MS analysis; details: dog
[4] = Efflux ratio of apparent permeability across basolateral to apical side over apical to basolateral side in MDCK-MDR1 cells; details: dog
[5] = Volume of distribution at steady state in C57/BL6 mouse at 2 mg/kg, po or 0.5 mg/kg,iv by LC-MS-MS analysis; format: ADME, organism-based; details: in vivo
[6] = Half life in C57/BL6 mouse at 0.5 mg/kg,iv by LC-MS-MS analysis; format: ADME, organism-based; details: in vivo
[7] = Dose normalized AUC in C57/BL6 mouse at 2 mg/kg, po by LC-MS-MS analysis; format: ADME, organism-based; details: in vivo
[8] = Oral bioavailability in C57/BL6 mouse at 2 mg/kg by LC-MS-MS analysis; format: ADME, organism-based; details: in vivo
[9] = Brain to plasma permeability coefficient, Kp in C57Bl/6 mouse 2 mg/kg, po or 0.5 mg/kg,iv by LC-MS-MS analysis; format: ADME, organism-based; details: C57Bl/6, mouse, brain and plasma, read-out: Kp
[10] = Unbound drug concentration in C57Bl/6 mouse plasma at 2 mg/kg, po or 0.5 mg/kg,iv by LC-MS-MS analysis; format: ADME, organism-based; details: C57Bl/6, mouse, plasma
[11] = Unbound brain-to-plasma concentration ratio in C57Bl/6 mouse at 2 mg/kg, po or 0.5 mg/kg,iv by LC-MS-MS analysis; format: ADME, organism-based; details: C57Bl/6, mouse, brain and plasma, read-out: K(p,uu,brain)
D-amino-acid oxidase [12] = target: D-amino-acid oxidase (Mus musculus, UniProt P18894); assay: Inhibition of full length mouse DAO transfected with CHO-K1 cells incubated for 30 mins by Amplex red and horseradish peroxidase based fluorescence assay; format: cell-based
Chain of D-amino-acid oxidase (Mus musculus, UniProt P18894) (P18894 whole entry): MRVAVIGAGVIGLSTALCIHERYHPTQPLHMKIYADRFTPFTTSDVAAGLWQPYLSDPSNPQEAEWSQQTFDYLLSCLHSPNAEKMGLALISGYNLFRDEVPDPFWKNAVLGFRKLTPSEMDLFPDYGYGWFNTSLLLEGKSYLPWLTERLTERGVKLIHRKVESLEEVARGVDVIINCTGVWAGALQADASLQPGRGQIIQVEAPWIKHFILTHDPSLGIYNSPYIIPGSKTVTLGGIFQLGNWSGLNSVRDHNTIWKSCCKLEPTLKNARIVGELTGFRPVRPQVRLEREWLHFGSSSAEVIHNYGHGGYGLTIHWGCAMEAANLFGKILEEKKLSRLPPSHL

[13] = target: T1, Prostaglandin G/H synthase 2 (Homo sapiens, UniProt P35354); assay: Inhibition of human COX2
T1 sequence (P35354 whole entry): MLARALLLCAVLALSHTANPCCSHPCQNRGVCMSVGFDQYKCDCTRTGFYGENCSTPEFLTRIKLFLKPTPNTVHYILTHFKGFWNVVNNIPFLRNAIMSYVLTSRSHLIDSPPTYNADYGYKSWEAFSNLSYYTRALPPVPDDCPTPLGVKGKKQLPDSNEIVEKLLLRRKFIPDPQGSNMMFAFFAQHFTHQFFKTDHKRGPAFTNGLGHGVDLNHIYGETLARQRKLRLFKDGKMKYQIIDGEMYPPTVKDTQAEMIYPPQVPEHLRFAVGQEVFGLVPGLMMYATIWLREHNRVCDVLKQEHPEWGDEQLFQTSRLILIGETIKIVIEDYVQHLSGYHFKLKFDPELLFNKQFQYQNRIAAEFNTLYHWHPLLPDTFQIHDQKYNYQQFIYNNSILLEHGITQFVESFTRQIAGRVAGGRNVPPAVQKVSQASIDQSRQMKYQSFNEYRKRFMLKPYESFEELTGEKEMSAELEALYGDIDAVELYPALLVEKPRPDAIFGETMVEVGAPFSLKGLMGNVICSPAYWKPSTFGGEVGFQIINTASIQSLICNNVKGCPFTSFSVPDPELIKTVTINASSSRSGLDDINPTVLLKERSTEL

[14] = target: T2, Polyunsaturated fatty acid 5-lipoxygenase (Homo sapiens, UniProt P09917); assay: Inhibition of human recombinant 5-LOX incubated for 5 mins by fluorimetry
T2 sequence (P09917 whole entry): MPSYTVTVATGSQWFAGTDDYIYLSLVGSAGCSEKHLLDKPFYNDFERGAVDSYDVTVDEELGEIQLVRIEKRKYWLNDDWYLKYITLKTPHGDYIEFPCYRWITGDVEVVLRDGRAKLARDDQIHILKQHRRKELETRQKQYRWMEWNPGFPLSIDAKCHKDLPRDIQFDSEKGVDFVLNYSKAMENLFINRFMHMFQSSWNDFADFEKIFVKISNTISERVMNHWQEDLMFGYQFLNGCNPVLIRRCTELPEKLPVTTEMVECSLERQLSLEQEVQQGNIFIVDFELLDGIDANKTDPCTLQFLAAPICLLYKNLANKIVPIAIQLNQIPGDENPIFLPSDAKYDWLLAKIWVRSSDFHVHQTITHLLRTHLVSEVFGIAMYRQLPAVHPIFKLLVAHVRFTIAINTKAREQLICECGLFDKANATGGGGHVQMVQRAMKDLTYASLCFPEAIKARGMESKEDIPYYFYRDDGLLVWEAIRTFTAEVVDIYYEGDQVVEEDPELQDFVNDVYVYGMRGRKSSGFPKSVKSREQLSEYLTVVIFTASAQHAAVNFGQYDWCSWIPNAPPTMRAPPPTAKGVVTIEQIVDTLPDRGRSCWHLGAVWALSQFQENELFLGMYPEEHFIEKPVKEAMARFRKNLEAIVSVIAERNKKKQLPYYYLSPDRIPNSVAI

Adenosine receptor A3 = target: T3, Adenosine receptor A3 (Homo sapiens, UniProt P0DMS8); assay: Inhibition of recombinant human adenosine A3 GPCR incubated for 120 mins by scintillation counting based radiometry assay
T3 sequence (P0DMS8 whole entry): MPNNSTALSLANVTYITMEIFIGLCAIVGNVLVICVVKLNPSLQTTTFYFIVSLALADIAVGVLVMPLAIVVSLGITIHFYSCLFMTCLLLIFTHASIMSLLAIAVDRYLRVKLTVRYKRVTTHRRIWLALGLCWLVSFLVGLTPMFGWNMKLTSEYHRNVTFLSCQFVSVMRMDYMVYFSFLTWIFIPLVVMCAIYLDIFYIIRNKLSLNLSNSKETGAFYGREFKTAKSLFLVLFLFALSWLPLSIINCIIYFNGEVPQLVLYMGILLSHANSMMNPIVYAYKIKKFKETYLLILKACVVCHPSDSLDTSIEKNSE

Glucocorticoid receptor = target: T4, Glucocorticoid receptor (Homo sapiens, UniProt P04150); assay: Inhibition of GR human glucocorticoid NHR incubated for 360 mins by scintillation counting based radiometry assay
T4 sequence (P04150 whole entry): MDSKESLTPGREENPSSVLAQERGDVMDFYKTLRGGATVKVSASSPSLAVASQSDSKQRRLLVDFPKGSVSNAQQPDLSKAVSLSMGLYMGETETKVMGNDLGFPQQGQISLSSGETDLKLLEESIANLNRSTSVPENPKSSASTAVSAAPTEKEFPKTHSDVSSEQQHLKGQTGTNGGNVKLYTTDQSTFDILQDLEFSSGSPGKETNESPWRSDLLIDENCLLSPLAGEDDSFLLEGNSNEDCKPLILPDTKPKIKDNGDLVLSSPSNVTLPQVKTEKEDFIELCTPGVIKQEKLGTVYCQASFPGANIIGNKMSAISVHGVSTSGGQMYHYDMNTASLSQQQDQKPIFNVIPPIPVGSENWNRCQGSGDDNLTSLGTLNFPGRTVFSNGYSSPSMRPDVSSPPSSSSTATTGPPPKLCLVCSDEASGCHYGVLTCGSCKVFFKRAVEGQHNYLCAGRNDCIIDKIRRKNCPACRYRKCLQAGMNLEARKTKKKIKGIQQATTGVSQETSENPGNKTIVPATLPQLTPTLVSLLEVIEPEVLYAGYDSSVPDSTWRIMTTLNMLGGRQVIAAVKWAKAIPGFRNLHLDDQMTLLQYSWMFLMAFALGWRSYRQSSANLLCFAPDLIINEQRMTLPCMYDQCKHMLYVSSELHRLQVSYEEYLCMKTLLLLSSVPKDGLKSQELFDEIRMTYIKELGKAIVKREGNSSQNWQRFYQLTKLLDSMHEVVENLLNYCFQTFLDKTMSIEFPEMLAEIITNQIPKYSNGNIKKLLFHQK

[15] = target: T5, Peroxisome proliferator-activated receptor gamma (Homo sapiens, UniProt P37231); assay: Inhibition of recombinant human PPAR gamma NHR incubated for 120 mins by scintillation counting based radiometry assay
T5 sequence (P37231 whole entry): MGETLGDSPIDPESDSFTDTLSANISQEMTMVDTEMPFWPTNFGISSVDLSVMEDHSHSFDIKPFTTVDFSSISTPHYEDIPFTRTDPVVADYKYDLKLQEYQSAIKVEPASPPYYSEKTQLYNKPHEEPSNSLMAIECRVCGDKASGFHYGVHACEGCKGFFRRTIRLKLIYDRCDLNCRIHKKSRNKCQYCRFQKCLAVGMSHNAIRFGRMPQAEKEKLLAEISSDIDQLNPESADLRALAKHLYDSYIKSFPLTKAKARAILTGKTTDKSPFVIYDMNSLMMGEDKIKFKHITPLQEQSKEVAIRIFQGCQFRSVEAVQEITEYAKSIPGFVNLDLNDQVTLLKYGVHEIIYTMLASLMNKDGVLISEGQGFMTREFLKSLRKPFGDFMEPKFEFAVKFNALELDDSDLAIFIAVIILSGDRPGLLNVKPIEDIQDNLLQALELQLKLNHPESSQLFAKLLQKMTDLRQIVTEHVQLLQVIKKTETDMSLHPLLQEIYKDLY

Mus musculus [16] = assay: Effect of compound in C57BL/6 mouse catalepsy model assessed as no catalepsy at 150 mg/kg, po bid administered for every 4 hrs; format: functional, organism-based
[17] = In vivo receptor occupancy at DAO in C57BL/6 mouse cerebellum at 150 mg/kg, po measured after 4 hrs relative to control; format: functional
[18] = In vivo receptor occupancy at DAO in C57BL/6 mouse cerebellum at 150 mg/kg, po measured after 6 hrs relative to control; format: functional
[19] = In vivo receptor occupancy at DAO in C57BL/6 mouse cerebellum at 150 mg/kg, po measured after 10 hrs relative to control; format: functional
Mus musculus [20] = assay: Effect of compound in C57BL/6 mouse catalepsy model assessed as decrease in plasma prolactin level at 150 mg/kg, po bid administered for every 4 hrs; format: functional, organism-based

fraction unbound [1]: 0.26
IC50 (D-amino-acid oxidase [2]): 0.12 µM
Papp A→B [3]: 8.8 ×10⁻⁶ cm/s
efflux ratio [4]: 0.8
Vdss [5]: 0.2 L/kg
half-life [6]: 1.2 h
AUC/dose [7]: 6266 ng·h/mL
bioavailability [8]: 34%
Kp [9]: 0.004
fraction unbound [10]: 0.22
Kp uu [11]: 0.005
SMILES: O=c1[nH]c2ccsc2[nH]c1=O

EC50 (D-amino-acid oxidase [12]): 0.62 µM
IC50 [13]: > 10 µM
IC50 [14]: > 10 µM
IC50 (Adenosine receptor A3): > 10 µM
IC50 (Glucocorticoid receptor): > 10 µM
IC50 [15]: > 10 µM
SMILES: O=c1[nH]cc(CSc2ccc(C(F)F)cc2)[nH]c1=O

EC50 (D-amino-acid oxidase [12]): 0.51 µM
IC50 [13]: > 10 µM
IC50 [14]: > 10 µM
IC50 (Adenosine receptor A3): > 10 µM
IC50 (Glucocorticoid receptor): > 10 µM
IC50 [15]: > 10 µM
SMILES: O=c1[nH]cc(CSc2ccc(C(F)(F)F)cc2)[nH]c1=O
Activity (Mus musculus [16]): Active
Activity [17]: 75%
Activity [18]: 86%
Activity [19]: 59%
Activity (Mus musculus [20]): Active
